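Test compounds were applied to cells in 96-well plates for 48 hours at 5 doses. GI50 marks 50% less growth. TGI marks complete inhibition of growth.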 Some results are limits rather than exact numbers.

Our source for the TGI and GI50 values is PubChem BioAssay (NCI).

Among the test systems are U251 CNS; HT29 colon; UACC-62 melanoma; ACHN renal; MCF7 breast; EKVX NSCLC; SK-OV-3 ovarian; SK-MEL-2 melanoma; MDA-N.
Common to all, as to assay: NCI-60 cell line screen, 48 h

In the case of `O=c1[nH]c(=O)n(C2CC(O)C(CO)O2)cc1OC/C=C/Cc1ccccc1` (stereo not drawn), the TGI in the assay with U251 CNS, with HT29 colon, in the assay with UACC-62 melanoma, in the assay on ACHN renal, with MCF7 breast and in the assay with EKVX NSCLC was above 100 µM in each case. For the same molecule, in the assay with SK-OV-3 ovarian, the TGI was above 100 µM.
With `CCOC(=O)Cn1nnc2cc(Nc3c(C)[n+]([O-])c4cc(F)c(OCC)cc4[n+]3[O-])ccc21`, the TGI in the assay with U251 CNS, in the assay on HT29 colon, in the assay with ACHN renal, with MCF7 breast, with SK-MEL-2 melanoma and in the assay on EKVX NSCLC was above 100 µM throughout. Besides, the TGI in the assay on SK-OV-3 ovarian was above 100 µM.
With `N#Cc1nc(CCCN2C(=O)c3ccccc3C2=O)oc1N`, the TGI with U251 CNS, in the assay on HT29 colon, with ACHN renal, in the assay with MDA-N, in the assay on MCF7 breast and in the assay on SK-MEL-2 melanoma was above 100 µM each time. For the same molecule, the TGI in the assay on EKVX NSCLC and in the assay on SK-OV-3 ovarian was above 100 µM each time.
`O=C1CS/C(=N/N=C/c2cn(Cc3ccc(Cl)cc3Cl)c3ccccc23)N1`: the TGI with U251 CNS is 37.2 µM; with HT29 colon, above 100 µM; in the assay on UACC-62 melanoma, above 100 µM; with ACHN renal it was above 100 µM; in the assay with MCF7 breast, 61.6 µM; with SK-MEL-2 melanoma, 74.7 µM. Besides, the values for the TGI with EKVX NSCLC and with SK-OV-3 ovarian were 48.5 µM and above 100 µM, respectively.
Turning to `Clc1ccc(OCc2nnc(COc3ccc(OCc4nnc(COc5ccc(Cl)cc5Cl)o4)c(Cl)c3)o2)c(Cl)c1`, the TGI is 54.7 µM with U251 CNS; 87.5 µM in the assay on HT29 colon; above 100 µM in the assay on UACC-62 melanoma; above 100 µM in the assay on ACHN renal; above 100 µM in the assay with MDA-N; above 100 µM in the assay with MCF7 breast. Besides, the values for the TGI in the assay with SK-MEL-2 melanoma and in the assay with EKVX NSCLC were above 100 µM and 45.2 µM, respectively.
As for `C[C@H](c1ccccc1)N1C(=O)[C@@H](OCc2ccccc2)[C@H]1[C@H](COC(=O)COCc1ccccc1)OCc1ccccc1`, the TGI in the assay with U251 CNS, in the assay on UACC-62 melanoma, in the assay on ACHN renal, with MDA-N, in the assay with MCF7 breast and in the assay with SK-MEL-2 melanoma was above 100 µM in each case. Besides, the TGI with EKVX NSCLC and with SK-OV-3 ovarian was above 100 µM in each case.
Consider `COc1ccc2c(c1)-c1c(c3cc(OC)ccc3n1CCN(C)C)CC2`, for which the TGI in the assay with U251 CNS amounted to 24.8 µM; in the assay with HT29 colon it was 19.1 µM; in the assay with UACC-62 melanoma it was 22.8 µM; in the assay with ACHN renal it was 28.4 µM; in the assay on MDA-N it was 27.9 µM; with MCF7 breast it was 28.9 µM. In addition, the TGI stood at 29 µM in the assay on SK-MEL-2 melanoma and 37.1 µM in the assay on SK-OV-3 ovarian.
With `CCN(CCCCCCCCCCN1CC(=O)N(CCCCCCCCCCN(CC)Cc2ccccc2OC)CC1=O)Cc1ccccc1OC`, the GI50 in the assay with U251 CNS is 1.15 µM; with UACC-62 melanoma, 2.06 µM; in the assay on ACHN renal, 2.36 µM; with MCF7 breast, 1.2 µM; in the assay with EKVX NSCLC, 1.82 µM; in the assay with SK-OV-3 ovarian, 1.83 µM. For the same molecule, the TGI was 2.58 µM with U251 CNS; 3.89 µM with UACC-62 melanoma; 6.82 µM with ACHN renal; 2.81 µM in the assay on MCF7 breast; 8.14 µM with EKVX NSCLC; 3.68 µM in the assay with SK-OV-3 ovarian.
Consider `Cc1cccc(NS(=O)(=O)c2ccc(N=Nc3c(O)c(C(=O)O)cc4ccccc34)cc2)n1`, for which the TGI in the assay with U251 CNS, with HT29 colon, in the assay with UACC-62 melanoma, with ACHN renal, in the assay on MCF7 breast and with SK-MEL-2 melanoma was above 100 µM throughout. Moreover, the TGI in the assay with EKVX NSCLC and with SK-OV-3 ovarian was above 100 µM each time.
Turning to `CN(C)CCNc1c([N+](=O)[O-])sc2ccc(Cl)cc12`, the TGI is 78.3 µM in the assay on U251 CNS; above 100 µM in the assay with HT29 colon; 62.7 µM in the assay on UACC-62 melanoma; above 100 µM in the assay with ACHN renal; above 100 µM in the assay with MCF7 breast; above 100 µM in the assay with SK-MEL-2 melanoma. Further, the TGI in the assay on EKVX NSCLC and in the assay with SK-OV-3 ovarian was above 100 µM in each case.
For the molecule `C[N+]1(CCN=C=NC2CCCCC2)CCOCC1`, the TGI with U251 CNS, in the assay on HT29 colon, with UACC-62 melanoma, with ACHN renal, in the assay on MCF7 breast and in the assay with SK-MEL-2 melanoma was above 100 µM in each case. Moreover, the TGI in the assay with EKVX NSCLC and with SK-OV-3 ovarian was above 100 µM each time.
Turning to `CC(O)CNC1=CC(=O)C(=O)c2ccccc21` (stereo not drawn), the TGI with U251 CNS is 30.6 µM; in the assay with UACC-62 melanoma, 26.8 µM; in the assay with ACHN renal, 35.6 µM; in the assay with MDA-N it was 34.5 µM; in the assay with MCF7 breast, 48.7 µM; in the assay with SK-MEL-2 melanoma, 32.9 µM. Also, the TGI is 40.2 µM in the assay on EKVX NSCLC and above 100 µM in the assay on SK-OV-3 ovarian.
For the molecule `CC(C)=CCC12Cc3ccc(O)cc3C(C(C)CN1)C2C` (stereo not drawn), the TGI in the assay on U251 CNS, with HT29 colon, with UACC-62 melanoma, with ACHN renal, with MCF7 breast and with EKVX NSCLC was above 100 µM throughout. The molecule further showed a TGI with SK-OV-3 ovarian above 100 µM.
As for `Cc1ccc(C(=O)Cc2nc3c([nH]c2=O)c(C)nn3-c2ccccc2)c(C)c1`, the TGI with U251 CNS, with HT29 colon, with UACC-62 melanoma, with ACHN renal, in the assay with MDA-N and in the assay on MCF7 breast was above 10 µM each time. Also, the TGI in the assay on SK-OV-3 ovarian is above 10 µM.
On to `CCC(=O)Nc1ccc(NS(=O)(=O)c2ccc(Cl)cc2)cc1`, for which the TGI in the assay with HT29 colon, in the assay with UACC-62 melanoma, in the assay with ACHN renal, with MDA-N, with MCF7 breast and with SK-MEL-2 melanoma was above 100 µM each time. For the same molecule, the TGI in the assay with EKVX NSCLC and in the assay on SK-OV-3 ovarian was above 100 µM in each case.
With `Nc1c(S(N)(=O)=O)cc(S(N)(=O)=O)cc1S(N)(=O)=O`, the TGI in the assay with U251 CNS, in the assay with HT29 colon, in the assay with UACC-62 melanoma, with ACHN renal, with MDA-N and in the assay on MCF7 breast was above 100 µM in each case. In addition, the TGI in the assay with EKVX NSCLC and in the assay on SK-OV-3 ovarian was above 100 µM each time.
